Earlier results, collected in paper PMC8762078, “An ALS-associated variant of the autophagy receptor SQSTM1/p62 reprograms binding selectivity toward the autophagy-related hATG8 proteins” (The Journal of Biological Chemistry, 2021).
Entries after “also recorded” stand apart in the source; their conditions may differ.

Experiments:
GABARAPL2 = GABARAPL2 (Homo sapiens, UniProt P60520); details: ITC, compared with p62 WT-AIM
Excerpt: A comparison may be drawn between the GABARAPL2/p62 AIM model produced here and the GABARAPL2/UBA5 AIM structure, the only published structure of an AIM-bound GABARAPL2 ([38]). Both involve the formation of an intermolecular β-sheet between the AIM and the β2 strand of GABARAPL2; however, the UBA5 AIM is atypical, and this produces a noncanonical interaction. The UBA5 AIM sequence ([…]) leads to the formation of a binding pocket not observed in the GABARAPL2/p62 AIM model proposed here or in any other hATG8/AIM interaction, due to the spacing of the key residues. The RMSD between these two ...

motor neurone-like cells = test system: motor neurone-like cells
Excerpt: Autophagy is a central pathway for the removal of aggregated or damaged proteins and organelles and is critical to cellular homeostasis. Deregulation of autophagy is recognized as a pathogenic mechanism contributing to a range of neurodegenerative disorders, including amyotrophic lateral sclerosis (ALS) and frontotemporal lobar degeneration (FTLD) ([1], [2], [3], [4]). These conditions form a disease spectrum (ALS-FTLD) defined primarily by ubiquitinated inclusions of TAR DNA-binding protein-43 kDa in neurones ([5]). The link between ALS-FTLD and autophagy is reinforced by the identification o ... || A clear effect of the ALS-associated L341V mutation of p62/hATG8 interactions has been shown through these in vitro studies, though the impact remains relatively modest with individual interaction affinity alterations of up to approximately twofold. However, the interactions are best contextualized around the tendency for p62 to assemble into nanoscale filaments, which have been amenable to cryo-EM structural characterization (Fig. 6A) ([17], [52]). The N-terminal PB1 domain of p62 assembles into a helical protein scaffold with the flexible C-terminal chain, which carries the AIM and UBA domai ...

Chain of GABARAPL2 (P60520 whole entry): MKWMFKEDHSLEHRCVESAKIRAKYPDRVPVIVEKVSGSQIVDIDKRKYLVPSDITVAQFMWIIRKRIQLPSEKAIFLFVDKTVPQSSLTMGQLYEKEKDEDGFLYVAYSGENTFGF

Substance	thermodynamic profile of GABARAPL2/UBA5 interaction (GABARAPL2)	p62 recruitment into autophagic vesicles (motor neurone-like cells)
WGIELV [UBA5 AIM]	more enthalpically driven than the interaction with p62 reported here	
p62 L341V: ALS-associated L341V variant of the SQSTM1/p62 autophagy receptor		defect in p62 protein recruitment into autophagic vesicles; also recorded: reduction in p62 recruitment to acidic autophagic vesicles
